PMC10139035, “Carborane-Containing Hydroxamate MMP Ligands for the Treatment of Tumors Using Boron Neutron Capture Therapy (BNCT): Efficacy without Tumor Cell Entry” (International Journal of Molecular Sciences, 2023)

How the values were obtained:
SCC VII tumor cells [1] = experiment: Cytotoxicity: IC50, growth inhibition after 3 days of continuous exposure; format: cell-based; conditions: 3 days continuous exposure, read-out: IC50 (cell toxicity)
Experimental: Suspensions of 105 SCC VII cells/200 μL MEM containing 10% FCS (fetal calf serum) were incubated for 3 days in 96-well microplate with various concentrations of 1 and 2 (B1 and B2). After 3 days of exposure, the cell were washed with PBS and fixed with 70% ethanol. The SCC VII cells were stained with 5% Giemsa solution for 15 min. After removing the solution, the cells were dried in air and Giemsa stained cells were uniformized by the addition of 100 μL of alcohol. The optical absorbance at 595 nm was measured by optical densitometer.

SCC VII tumor cells [2] = experiment: In vitro BNCT survival study, colony formation assay; format: cell-based
Experimental: SCC VII tumor cells were incubated and stabilized in a logarithmic subconfluent growth phase at 36 °C in a 5% carbon dioxide atmosphere in a 10 cm diameter tissue culture dishes (100 mm tissue culture dishes; Corning Glass Works, Corning, NY, USA) containing Eagle’s MEM containing 10% heat-inactivated fetal bovine serum and 2 mM L-glutamine. The U87 delta EGFR glioma cell line, kindly provided by Dr. H. Michiue (Okayama University, Okayama, Japan), which stably expressed the constitutively active EGFRvIII, was used in the colony formation assay. […] The thermal neutron fluence was determined by averaging two gold foils symmetrically attached to the surface of the Teflon tube along the direction of the incidence of the thermal neutrons. The neutron absorbed dose (Gy) was calculated using the flux-to-dose conversion factor [61]. […] Ten days later, the colonies were fixed with 70% ethanol and stained with 5% Giemsa solution for quantitative visualization by the naked eye.

[3] = test system: U87 delta EGFR glioma cells; experiment: as above; format: cell-based; conditions: for Survival rate: 20 ppm of 10B in BPA; for Thermal neutron fluence yielding the D37 value: BPA 20 ppm 10B
Experimental: SCC VII tumor cells were incubated and stabilized in a logarithmic subconfluent growth phase at 36 °C in a 5% carbon dioxide atmosphere in a 10 cm diameter tissue culture dishes (100 mm tissue culture dishes; Corning Glass Works, Corning, NY, USA) containing Eagle’s MEM containing 10% heat-inactivated fetal bovine serum and 2 mM L-glutamine. The U87 delta EGFR glioma cell line, kindly provided by Dr. H. Michiue (Okayama University, Okayama, Japan), which stably expressed the constitutively active EGFRvIII, was used in the colony formation assay. The cells were maintained in Dulbecco’s modified Eagle’s medium (DMEM; FUJIFILM Wako Pure Chemical Corporation, Richmond, VA, USA with 10% fetal bovine serum (FBS), penicillin, and streptomycin at 37 °C in a humidified atmosphere containing 5% CO2. The stock solutions of B1 and B2 were obtained by dissolving 6 mg of them in 1 ml DMSO, respectively. For SCC VII cells, after adding 100 μL of a boron solution, the cells were incubated for boron loading into tumor cells for 5 h. […] The ^10B (0.143 ppm ^10B for 1 (B1) and 0.101 ppm for 2 (B2) in the medium was reconfirmed by PGS (prompt γ spectroscopy) in the SCC VII colony forming assay. After boron loading, the cells were trypsinized and washed three times by PBS, and 5 × 10^3 cells/mL MEM (FCS+) were irradiated with thermal neutrons in column-shaped Teflon tubes (1 × 3 cm). […] The irradiation times were 0, 15, 30 and 45 min. The thermal neutrons flux was 1.8 × 10^9 cm^−2·s^−1. The thermal neutron fluence was determined by averaging two gold foils symmetrically attached to the surface of the Teflon tube along the direction of the incidence of the thermal neutrons. The neutron absorbed dose (Gy) was calculated using the flux-to-dose conversion factor [61]. The chemical composition of the tumors was assumed to be 10.7% hydrogen, 12.1% carbon, 2% nitrogen, 71.4% oxygen, and 3.8% others. The γ-ray dose rate, including secondary γ-rays, was 1.0 × 10^−2 Gy·min^−1, according to a thermoluminescence dosimeter attached to the surface of a Teflon tube containing 1 mL MEM. After thermal neutron exposure, 300 or 900 cells were placed in three Corning 60 mm tissue culture dishes containing 6 mL MEM to examine colony formation. Ten days later, the colonies were fixed with 70% ethanol and stained with 5% Giemsa solution for quantitative visualization by the naked eye.

MMP-2 = target: T1, MMP-2 (Homo sapiens, UniProt P08253); experiment: MMP-2 fluorometric inhibitor screening kit assay; conditions: read-out: IC50 MMP-2; triplicate, S.D.
T1 sequence (P08253 110-660): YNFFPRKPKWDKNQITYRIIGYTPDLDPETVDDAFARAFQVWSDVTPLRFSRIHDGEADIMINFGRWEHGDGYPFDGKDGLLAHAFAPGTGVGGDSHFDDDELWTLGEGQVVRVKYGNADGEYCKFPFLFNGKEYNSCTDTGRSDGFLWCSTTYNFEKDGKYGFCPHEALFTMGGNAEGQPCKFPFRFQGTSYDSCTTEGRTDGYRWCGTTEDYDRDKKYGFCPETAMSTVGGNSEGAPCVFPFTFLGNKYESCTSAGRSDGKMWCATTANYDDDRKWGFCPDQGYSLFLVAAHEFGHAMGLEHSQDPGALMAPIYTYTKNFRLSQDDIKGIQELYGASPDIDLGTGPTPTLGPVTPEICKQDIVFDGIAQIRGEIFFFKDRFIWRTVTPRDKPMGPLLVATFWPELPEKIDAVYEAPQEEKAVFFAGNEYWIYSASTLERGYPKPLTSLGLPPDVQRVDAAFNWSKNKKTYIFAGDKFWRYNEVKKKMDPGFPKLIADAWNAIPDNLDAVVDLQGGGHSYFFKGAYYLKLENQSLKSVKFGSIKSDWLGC
Experimental: (§1) MMP-2, MMP-9, and MMP-13 were assayed for inhibition using the respective abcam: ab139447, ab139449, and ab139451 Inhibitor Screening Kits. The supplied kits were adaptable to a microplate reader protocol designed for observing a fluorometric change associated with the cleavage of substrate analog at 37 °C. Briefly, each assay or control included a combined volume of 100 µL. […] The enzymes were then diluted in the assay buffer and 20 µL of each was added to give an assay concentrations of 0.042 nM (MMP-2), 1.9 nM (MMP-9), and 1.86 nM (MMP-13). […] The reaction was excited at 328 nm and emission detected at 420 nm. Fluorescence was measured every 60 s for a total of 960 s.
(§2) For each assay, data were truncated at 1000 s and offsets were applied to bring the initial fluorescence of each assay to zero. Replicate data for assays of individual inhibitor concentrations were plotted in KaleidaGraph (Synergy Software) for comparison and obvious outliers were culled from the analysis. The remaining data were averaged to yield one trace for each inhibitor concentration. The average data were combined into a dataset that included all assayed inhibitor concentrations for each MMP paralog. […]
(§3) The error was calculated by propagating the error for ratios of rate constants derived from fitting.

MMP-9 = MMP-9 (Homo sapiens, UniProt P14780); experiment: MMP-9 fluorometric inhibitor screening kit assay; conditions: read-out: IC50 MMP-9; triplicate, S.D.
MMP-9, sequence (P14780 94-707): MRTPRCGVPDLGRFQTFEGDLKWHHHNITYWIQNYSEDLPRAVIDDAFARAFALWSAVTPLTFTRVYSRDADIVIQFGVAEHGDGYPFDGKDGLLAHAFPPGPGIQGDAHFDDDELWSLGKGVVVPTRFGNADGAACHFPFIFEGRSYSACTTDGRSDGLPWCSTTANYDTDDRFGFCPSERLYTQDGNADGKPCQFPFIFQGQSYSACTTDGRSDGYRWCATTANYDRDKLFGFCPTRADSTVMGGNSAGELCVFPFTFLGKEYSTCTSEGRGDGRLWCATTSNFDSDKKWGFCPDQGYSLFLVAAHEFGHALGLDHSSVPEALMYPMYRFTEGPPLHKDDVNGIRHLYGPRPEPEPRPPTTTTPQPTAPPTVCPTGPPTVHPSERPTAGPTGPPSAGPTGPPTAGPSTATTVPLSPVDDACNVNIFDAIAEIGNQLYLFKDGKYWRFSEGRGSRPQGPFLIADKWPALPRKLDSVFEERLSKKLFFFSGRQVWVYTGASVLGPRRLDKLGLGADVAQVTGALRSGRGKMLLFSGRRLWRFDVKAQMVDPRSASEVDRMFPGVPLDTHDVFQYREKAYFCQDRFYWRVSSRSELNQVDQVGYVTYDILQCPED
Experimental: as §1, §2, §3

Structure (SMILES)	IC50 (SCC VII tumor cells [1]) [µM]	D37 absorbed dose (dose used to inhibit 63% colony formation) (SCC VII tumor cells [2]; SCC VII after in vitro BNCT, pre-incubation 0.143 ppm 10B (1), 0.101 ppm 10B (2)) [Gy]	Thermal neutron fluence yielding the D37 value (SCC VII tumor cells [2]; SCC VII, BPA 20 ppm 10B, 4 0.48 ppm 10B (Figure 9))	Survival rate ([3]; thermal neutron fluence 2.7 × 10^12 cm^−2) [%]	Survival rate ([3]; thermal neutron fluence […] 10^12 cm^−2) [%]	Thermal neutron fluence yielding the D37 value ([3]; U87 MG delta EGFR, 4 0.48 ppm 10B (Figure 8))	Thermal neutron fluence yielding the D37 value ([3]; U87 delta EGFR, 2 (B2) 0.7 ppm 10B (Figure 7))	IC50 (MMP-2) [µM]	IC50 (MMP-9) [µM]
N[C@@H](Cc1ccc(B(O)O)cc1)C(=O)O [BPA, L-boronophenylalanine, reference compound]	25500	0.82	6.0 × 10^11	6.2 ± 1.4	24.2 ± 7.7	1.2 × 10^12	1.0 × 10^12		
COc1ccc(S(=O)(=O)N(CC(=O)NO)CC(C)C)cc1 [NNGH, N-isobutyl-N-(4-methoxyphenylsulfonyl)glycyl hydroxamic acid, reference compound]								0.0085 ± 0.0011	0.0028 ± 1.4e-05
